{
  "source": "patent US4180587A",
  "about": "“Ureylene phenylene anionic naphthalenesulfonic acids as complement inhibitors” (American Cyanamid Company, priority 1978, dated 1979)",
  "key": {"human C1": {"test_system": "human C1", "test": "Test Code 026 (C1 inhibitor): ability of activated human C1 to destroy fluid phase human C2 in the presence of C4", "type": "biochemical", "conditions": "activity in wells, twofold serial dilution; higher well number indicates higher activity", "description": "(§1) An active inhibitor protects C2 from C1 and C4; (ii) Test Code 035 (C3-C9 inhibitor)--This test determines the ability of the late components of human complement (C3-C9) to lyse EAC 142 in the presence of appropriate dilutions of the test compound. An active inhibitor protects EAC 142 from lysis by human C3-C9; (iii) Test Code 036 (C-Shunt inhibitor)--In this test human erythrocytes rendered fragile are lysed in autologous serum via the shunt pathway activated by cobra venom factor in the presence of appropriate dilutions of the test compound. Inhibition of the shunt pathway results in failure of lysis; (iv) Forssman Vasculitis Test--Here, the well known complement dependent lesion, Forssman vasculitis, is produced in guinea pigs by intradermal injection of rabbit anti-Forssman antiserum. […]"}, "whole complement": {"test_system": "whole complement", "test": "Complement Level Reduction Test: serum of dosed guinea pigs tested for whole complement by capillary tube assay", "type": "in vivo, guinea pig", "conditions": "intraperitoneal, 200 mg/kg", "description": "An active inhibitor protects C2 from C1 and C4; (ii) Test Code 035 (C3-C9 inhibitor)--This test determines the ability of the late components of human complement (C3-C9) to lyse EAC 142 in the presence of appropriate dilutions of the test compound. An active inhibitor protects EAC 142 from lysis by human C3-C9; (iii) Test Code 036 (C-Shunt inhibitor)--In this test human erythrocytes rendered fragile are lysed in autologous serum via the shunt pathway activated by cobra venom factor in the presence of appropriate dilutions of the test compound. Inhibition of the shunt pathway results in failure of lysis; (iv) Forssman Vasculitis Test--Here, the well known complement dependent lesion, Forssman vasculitis, is produced in guinea pigs by intradermal injection of rabbit anti-Forssman antiserum. The lesion is measured in terms of diameter, edema and hemorrhage and the extent to which a combined index of these is inhibited by prior intraperitoneal injection of the test compound at 200 mg/kg is then reported, unless otherwise stated; (v) Forssman Shock Test--Lethal shock is produced in guinea pigs by an i.v. injection of anti-Forssman antiserum and the harmonic mean death time of treated guinea pigs is compared with that of simultaneous controls; (vi) Complement Level Reduction Test--In this test, the above dosed guinea pigs, or others, are bled for serum and the complement level is determined in undiluted serum by the capillary tube method of U.S. Pat. No. 3,876,376 and compared to undosed control guinea pigs; and (vii) Cap 50 Test--Here, appropriate amounts of the test compound are added to a pool of guinea pig serum in vitro, after which the undiluted serum capillary tube assay referred to above is run. The concentration of compound inhibiting 50% is reported.\nWith reference to Table I, guinea pigs weighing about 300 g were dosed intravenously (i.v.) or intraperitoneally (i.p.) with 200 mg/kg of the test compound dissolved in saline and adjusted to pH 7-8. […] The serum was tested for whole complement using the capillary tube assay. Percent inhibition was calculated by comparison with simultaneous controls. The results appear in Table I together with results of tests code 026, 035, 036, Cap 50, % inhibition and Forssman shock."}, "shunt pathway": {"test_system": "shunt pathway", "test": "Test Code 036 (C-Shunt inhibitor): lysis of fragile human erythrocytes in autologous serum via shunt pathway activated by cobra venom factor", "type": "cell-based", "conditions": "activity in wells, twofold serial dilution", "description": "as §1"}, "[1]": {"test_system": "late components of human complement (C3-C9)", "test": "Test Code 035 (C3-C9 inhibitor): lysis of EAC 142 by late components of human complement", "type": "cell-based", "conditions": "activity in wells, twofold serial dilution; higher well number indicates higher activity", "description": "as §1"}, "complement system": {"test_system": "complement system", "conditions": "reported in literature; cited from earlier work"}, "[2]": {"test_system": "total hemolytic complement activity", "conditions": "in vitro; judged by reduction in total hemolytic complement activity; cited from earlier work"}, "[3]": {"test_system": "total hemolytic complement activity", "conditions": "in vivo; judged by reduction in total hemolytic complement activity; cited from earlier work"}, "[4]": {"conditions": "reported in literature; cited from earlier work"}},
  "note": "Read-outs that look alike come from different tables or passages of the source.",
  "data": [
    {"compound": "Cc1ccc(C(=O)Nc2cc(C(=O)Nc3ccc(S(=O)(=O)[O-])c4cc(S(=O)(=O)[O-])cc(S(=O)(=O)[O-])c34)ccc2C)cc1NC(=O)Nc1cc(C(=O)Nc2cc(C(=O)Nc3ccc(S(=O)(=O)[O-])c4cc(S(=O)(=O)[O-])cc(S(=O)(=O)[O-])c34)ccc2C)ccc1C.[Na+].[Na+].[Na+].[Na+].[Na+].[Na+]", "note": "[Example 3, 8,8'-[Ureylenebis[(4-methyl-3,1-phenylenecarbonyl)imino(4-methyl-3,1-phenylenecarbonyl)imino]]di-1,3,5-naphthalenetrisulfonic acid, hexasodium salt]", "values": [
      {"measurement": "C1 026 Wells", "setting": "human C1", "result": "+3 Wells"},
      {"measurement": "In Vivo Activity (Guinea Pig) % Inhibition", "setting": "whole complement; 30 minutes", "result": -58, "unit": "%"},
      {"measurement": "In Vivo Activity (Guinea Pig) % Inhibition", "setting": "whole complement; 60 minutes", "result": -65, "unit": "%"},
      {"measurement": "In Vivo Activity (Guinea Pig) % Inhibition", "setting": "whole complement; 120 minutes", "result": -77, "unit": "%"},
      {"measurement": "Shunt Inhibition 036 Wells", "setting": "shunt pathway", "result": "N"},
      {"measurement": "C-Late 035 Wells", "setting": "[1]", "result": "+3 Wells"}
    ]},
    {"compound": "Nc1ccc2cc(S(=O)(=O)[O-])cc(O)c2c1N=Nc1ccc(NC(=O)Nc2ccc(N=Nc3c(N)ccc4cc(S(=O)(=O)[O-])cc(O)c34)c(S(=O)(=O)[O-])c2)cc1S(=O)(=O)[O-].[Na+].[Na+].[Na+].[Na+]", "note": "[chlorazol fast pink, 3,3'-ureylenebis[6-(2-amino-8-hydroxy-6-sulfo-1-naphthylazo)benzenesulfonic acid], tetrasodium salt]", "values": [
      {"measurement": "anticomplementary effect / activity as complement inhibitor", "setting": "complement system", "result": "anticomplementary effect"}
    ]},
    {"compound": "pentosan-polysulfoester", "values": [
      {"measurement": "anticomplementary activity on human serum", "setting": "[2]", "result": "anticomplementary activity"},
      {"measurement": "anticomplementary activity on human serum", "setting": "[3]", "result": "anticomplementary activity"}
    ]},
    {"compound": "NCCCCCC(=O)O", "note": "[epsilon-aminocaproic acid]", "values": [
      {"measurement": "treatment of hereditary angioneurotic edema", "setting": "[4]", "result": "used with success"}
    ]},
    {"compound": "Cc1ccc(C(=O)Nc2ccc(S(=O)(=O)O)c3cc(S(=O)(=O)O)cc(S(=O)(=O)O)c23)cc1NC(=O)c1cccc(NC(=O)Nc2cccc(C(=O)Nc3cc(C(=O)Nc4ccc(S(=O)(=O)O)c5cc(S(=O)(=O)O)cc(S(=O)(=O)O)c45)ccc3C)c2)c1", "note": "[Suramin]", "values": [
      {"measurement": "C1 026 Wells", "setting": "human C1", "result": "+4 Wells"},
      {"measurement": "In Vivo Activity (Guinea Pig) % Inhibition", "setting": "whole complement; 30 minutes", "result": -9, "unit": "%"},
      {"measurement": "In Vivo Activity (Guinea Pig) % Inhibition", "setting": "whole complement; 60 minutes", "result": -17, "unit": "%"},
      {"measurement": "In Vivo Activity (Guinea Pig) % Inhibition", "setting": "whole complement; 120 minutes", "result": -44, "unit": "%"},
      {"measurement": "anticomplementary effect / activity as complement inhibitor", "setting": "complement system", "result": "moderately active as a complement inhibitor"},
      {"measurement": "C-Late 035 Wells", "setting": "[1]", "result": "+2 Wells"}
    ]},
    {"compound": "NC[C@H]1CC[C@H](C(=O)O)CC1", "note": "[tranexamic acid]", "values": [
      {"measurement": "treatment of hereditary angioneurotic edema", "setting": "[4]", "result": "used with success"}
    ]},
    {"compound": "heparin", "values": [
      {"measurement": "anticomplementary effect / activity as complement inhibitor", "setting": "complement system", "result": "anticomplementary effect"}
    ]}
  ]
}
